Measurements as given in patent US5004565A, “Method and compositions providing enhanced chemiluminescence from 1,2-dioxetanes” (priority 1988, dated 1991).
Structures can show the parent of a compound that is named as a salt.

Assays:
[1] = Base-triggered chemiluminescence in DMSO or water; settings: 10^-4 M, DMSO, excess tetra-n-butylammonium hydroxide
urease = experiment: Triggering of 2a with urease in the presence of fluorescent micelles; format: biochemical; settings: 10 μL of 3×10^-3 M 2a, CTAB, fluorescein surfactant 3, urea
Method: 5. Enzymatic Triggering of Hydroxy-Substituted Dioxetane 2a with Urease in the Presence of Fluorescent Micelles. A solution was prepared using 160 mg of CTAB and 12.4 mg of fluorescein surfactant 3 in 200 mL of distilled water. A urea solution was made by dissolving 200 mg of urea in 100 mL of distilled water with EDTA added to give a final concentration of 0.4 mM. The substrate solution for the urease experiments was obtained by mixing 10mL of each stock solution.
Experiments were carried out with urease (Sigma) by incubation at room temperature for periods of 0.5 to 2 hours. […] The intensity of the luminescence provided a measure of the concentration of urease.

[2] = format: physicochemical; settings: for t1/2 at 25° C.: table; for t1/2 at 25° C. / k at 25° C.: thermal decomposition in xylene
Method: Rates for thermal decomposition of the stable dioxetanes were monitored by the decay of chemiluminescence of aerated solutions. A cylindrical Pyrex vial equipped with magnetic stir bar was filled with 3-4 mL of the reaction solvent, sealed with a Teflon-lined screw cap and placed in the thermostatted sample block of the chemiluminescence-measuring luminometer. Temperature control was provided by an external circulating water bath. Appropriate values for the instrument gain and optical slit size were selected. […]. The vial was sealed with a Teflon-lined screw cap to prevent evaporation when high temperatures were used. Measurement of the signal was begun by opening the shutter. The chemiluminescent decay was generally recorded for at least three half-lives. Calculation of the first-order rate constant (k) from the In (Intensity) vs. time data was performed by a computer program utilizing a standard least-squares treatment. The correlation coefficient (r) was typically at least 0.999 and k varied less than 5% between replicate samples.
Activation parameters for decomposition of the dioxetanes were calculated from plots of In k vs. 1/T (Arrhenius eq.) or In k/t vs. 1/T (Eyring eq.) by a standard least-squares linear regression analysis.

firefly luciferase = firefly luciferase system; cited from earlier work
[3] = test system: alkaline phosphatase from bovine intestinal mucosa; experiment: Triggering of xanthenone phosphate dioxetane with alkaline phosphatase from bovine intestinal mucosa; format: biochemical; settings: 4.2×10^-6 M dioxetane, 1.8 μg/mL protein, pH 10.3, 37° C.
Method: Triggering experiments were conducted using alkaline phosphatase from bovine intestinal mucosa [suspension of 5.3 mg of protein (1100 units/mg protein) per mL in 3.2 M (NH4)2 SO4 ] and the phosphate-protected dioxetane at pH 10.3 in 0.75 M 2-amino-2-methyl- 1-propanol buffer. […]. The rate of decay of the emission is a function of enzyme concentration while the total light emission is independent of the enzyme concentration because of turnover of the enzyme.

[4] = test system: alkaline phosphatase from bovine intestinal mucosa; experiment: Triggering of 2c with alkaline phosphatase from bovine intestinal mucosa; format: biochemical
Description: The chemiluminescence quantum yield (.PHI.CL) for the decomposition of dioxetanes is defined as the ratio of einsteins of chemiluminescence emitted to moles of dioxetane decomposed. Sufficient energy is released during the reaction from the reaction enthalpy (ΔHR) plus the Arrhenius activation energy (Ea) to populate the singlet excited state of one of the carbonyl cleavage products. Therefore, the maximum quantum yield is 1.0. Another parameter of interest is the chemiexcitation quantum yield (.PHI.CE) which is defined as the ratio of excited states formed to dioxetane decomposed.
The same procedure as those employed in the measurement of the decay kinetics was used for the determination of chemiluminescence quantum yields with the following modifications. An accurately measured aliquot of a dioxetane stock solution of known concentration was added to 3 mL of the pre-thermostatted organic solvent or aqueous buffer. The reaction was then triggered by adding the appropriate chemical reagent or enzyme. […]
Enzymatic triggering experiments such as those described above were also carried out in Immumlon™ microtitre wells from Dynatech, Inc. made of transparent polystyrene. […] The chemiluminescence was detected at the bottom of the well using a fiber optic connected to the photon-counting luminometer described previously. […]

[5] = test system: Alkaline Phosphatase from Human Blood Serum; experiment: Triggering of 2c with alkaline phosphatase from human blood serum; format: biochemical; settings: 10^-5 M 2c, 100 μL serum, pH 10.3, 37° C.
Method: 1. Triggering the Chemiluminescence of 2c with Alkaline Phosphatase from Human Blood Serum. A stock solution of dioxetane 2c was prepared in dioxane/water (1:1 v/v) by photooxygenation of 1c. A sample of fresh blood was drawn from a healthy donor and the red blood cells removed by centrifugation to provide serum for the experiments. Treatment of 3 mL of a 10^-5 M solution of 2c in 0.75 M 2-amino-2-methyl-1-propanol (221) buffer (pH 10.3) at 37° C. with 100 μL of serum led to the typical intensity vs. time profile shown in FIG. 3 where the serum is injected at time zero. Under these conditions the light intensity reaches a constant level of approximately 2.3×10^4 counts/sec. The background luminescence signal from non-enzymatic hydrolysis of 2c is less than 0.05% of the enzyme-generated value.

COC1(c2cccc(O)c2)OOC12C1CC3CC(C1)CC2C3 (stereo not drawn) [dioxetane 2a, 4-(3-Hydroxyphenyl)-4-methoxyspiro[1,2-dioxetane-3,2'-adamantane]]
duration of chemiluminescence decay [1]: several minutes
chemiluminescence after incubation with urease (urease): produced chemiluminescence
t1/2 at 25° C. [2]: 4.1 yrs
k at 25° C. [2]: 5.38e-09 s⁻¹

CCCCCCCCCCCCCCCC[N+](C)(C)C.[Br-] [CTAB, cetyltrimethylammonium bromide]
inhibition of the catalytic activity of the luciferase (firefly luciferase): complete inhibition

COC1(c2cccc(O[Si](C)(C)C(C)(C)C)c2)OOC12C1CC3CC(C1)CC2C3 (stereo not drawn)
half-life at 25° C. ([2]; General Description dioxetanes): 3.8 years
decomposition on standing ([2]; o-xylene, laboratory bench, several months): no detectable decomposition

O=P(O)(O)Oc1ccc2c(c1)Oc1ccccc1C21OOC12C1CC3CC(C1)CC2C3 (stereo not drawn)
duration of chemiluminescence decay [3]: 3 min

COC1(c2cccc(OP(=O)(O)O)c2)OOC12C1CC3CC(C1)CC2C3 (stereo not drawn) [dioxetane 2c, 4-Methoxy-4-(3-phosphatephenyl)spiro[1,2-dioxetane-3,2'-adamantane], disodium salt]
detection of alkaline phosphatase ([4]; 2c, CTAB and 3 in 200 μL 221 buffer, assuming enzyme purity of 10%): less than 0.2 attomoles
period of chemiluminescence ([4]; with CTAB and 3, 12 pg/mL protein): 45 min
light intensity at plateau [5]: approximately 2.3×10^4 counts/sec
t1/2 at 25° C. [2]: 19 yrs
k at 25° C. [2]: 1.19e-09 s⁻¹

COC1(c2cccc(OC(C)=O)c2)OOC12C1CC3CC(C1)CC2C3 (stereo not drawn) [dioxetane 2b]
t1/2 at 25° C. [2]: 13 yrs
k at 25° C. [2]: 1.73e-09 s⁻¹
